Experimental findings from US11596591B2, “Manufacturing method for cosmetic composition of fucoidan and cosmetic composition comprising low molecular weight fucoidan using the same” (priority 2021, dated 2023) are described below.

The subject of the experiment is mushroom tyrosinase. In words: in-vitro tyrosinase inhibition assay (substrate L-tyrosine). It counts as biochemical. Particulars: 200 μM, positive control. An excerpt: An in-vitro tyrosinase inhibition assay was used to determine whether the whitening ingredients were directly affecting the regulation of the tyrosinase activity (using tyrosine as a substrate). The ingredients with a whitening effect mainly have a mechanism of action that inhibits some processes in the melanin biosynthetic pathway in vivo, which is the initial process in which tyrosinase is involved in the most important process in the synthetic pathway. Most of the whitening ingredients inhibit the activity of tyrosinase and reduce the production of melanin in the skin, resulting in offering a skin whitening effect. […] (1) Test method: For an in-vitro tyrosinase inhibition test of the test substance, mozuku-derived fucoidan extract, the tyrosinase inhibitory ability was measured using an in-vitro tyrosinase inhibition assay. […] The tyrosinase inhibitory effect of the test substance was evaluated by measuring the absorbance of DOPAchrome produced from the substrate L-tyrosine by the enzymatic reaction of tyrosinase. […] A microplate reader system (SpectraMax® i3x Multi Mode Detection Platform Molecular Devices, USA) was used to measure the absorbance at 475 nm. […] As determined by the Student's t test, P<0.05 was considered statistically significant. The in-vitro tyrosinase inhibition activity against the substrate L-tyrosine was calculated according to the following equation: […] […]

Take `OC[C@H]1O[C@@H](Oc2ccc(O)cc2)[C@H](O)[C@@H](O)[C@@H]1O` [arbutin]: the “tyrosinase inhibition activity against L-tyrosine with respect to the negative control” value turned out to be 50.47±0.95%.
